US20060046968A1, “Prodrug substituted benzoxazoles as estrogenic agents” (priority 2004, published 2006)
Several values for one entry are separate records, joined by “and”; a condition that tells them apart may be missing. Identical values can stand only once.

Tests used:
[1] = system: Sexually immature Sprague-Dawley rats; assay: Rat uterotrophic test procedure (Procedure 1); format: in vivo
morphine-addicted rats = assay: Rat hot flush test procedure (tail skin temperature after naloxone); format: in vivo
Description: The effect of test compounds on hot flushes can be evaluated in a standard pharmacological test procedure that measures the ability of a test compound to blunt the increase in tail skin temperature, which occurs as morphine-addicted rats are acutely withdrawn from the drug using naloxone [Merchenthaler, et al., Maturitas 30: 307-16 (1998)]. It can also be used to detect estrogen receptor antagonist activity by co-dosing test compound with the reference estrogen. The following data were obtained from representative metabolites of compounds of the invention (Table 7).

[2] = system: Sexually immature 129 SvE mice; assay: Mouse uterotrophic test procedure (Procedure 2); format: in vivo; settings: compound 50 mg/kg s.c., days 22-25
[3] = system: Progesterone receptor mRNA; assay: Progesterone receptor mRNA regulation in the preoptic area of the rat brain; format: in vivo; settings: 10 mg/kg
[4] = system: ovulation (number of oocytes ovulated); assay: Ovulation inhibition test procedure; format: in vivo; settings: 50 mg/kg
Description: The test procedure is used to determine whether test compounds can inhibit or change the timing of ovulation. It can also be used to determine the number of oocytes ovulated [Lundeen, et al., J Steroid Biochem Mol Biol 78: 137-143 (2001)]. The following data were obtained from representative metabolites of compounds from the invention (Table 22).

Female Mongolian gerbils = assay: Transient global ischemia in the Mongolian gerbil: neurogranin mRNA in hippocampus; format: in vivo; settings: gerbil hippocampus after 5 min global ischemia; s.c. daily
Procedure: Transient global ischemia in the Mongolian gerbil. The effect of test compounds on preventing or treating brain injury in response to oxygen deprivation/reperfusion were measured using the following test procedure.
Female Mongolian gerbils (60-80 g; Charles River Laboratories, Kingston, N.Y.) were housed in the Wyeth-Ayerst animal care facility Association for Assessment and Acreditation of Laboratory Animal Care (AAALAC) certified with a 12-hour light, 12-hour dark photoperiod and free access to tap water and a low-estrogen casein diet (Purina®; Richmond, Ind.). After acclimation (3-5 days), gerbils were anesthetized with isoflurane (2-3% mixture with O2), ovariectomized (Day 0). […] On Day 6, gerbils (n=4-5/group) were anesthetized with isoflurane, the common carotid arteries visualized via a mid-line neck incision and both arteries simultaneously occluded for 5 minutes with non-traumatic micro aneurysm clips. […]
The degree of neuronal protection was evaluated by in situ hybridization analysis of neurogranin mRNA. […]
Neurogranin mRNA was selected for these studies because it is highly expressed in the hippocampal neurons including CA1, but absent in glia and other cell types present in this brain region. […] The results from 6 sections (40 μm apart) per animal were averaged and statistically evaluated. […]

human ERβ = biological target: T1, human ERβ (Homo sapiens, UniProt Q92731); assay: ER radioligand binding competition, ERβ
T1 construct: Flag (C); made in house; host or cells: E. coli BL21 (DE3), clarified lysate

human ERα = biological target: T2, human ERα (Homo sapiens, UniProt P03372); assay: ER radioligand binding competition, ERα; settings: competition with [3H]-17β-estradiol; read-out: ER-α IC50
T2 construct: These templates contained amino acids M250-V595 of human ERα; His (N); Flag (C); made in house; host or cells: E. coli BL21 (DE3), clarified lysate
T2 sequence (P03372 250-595): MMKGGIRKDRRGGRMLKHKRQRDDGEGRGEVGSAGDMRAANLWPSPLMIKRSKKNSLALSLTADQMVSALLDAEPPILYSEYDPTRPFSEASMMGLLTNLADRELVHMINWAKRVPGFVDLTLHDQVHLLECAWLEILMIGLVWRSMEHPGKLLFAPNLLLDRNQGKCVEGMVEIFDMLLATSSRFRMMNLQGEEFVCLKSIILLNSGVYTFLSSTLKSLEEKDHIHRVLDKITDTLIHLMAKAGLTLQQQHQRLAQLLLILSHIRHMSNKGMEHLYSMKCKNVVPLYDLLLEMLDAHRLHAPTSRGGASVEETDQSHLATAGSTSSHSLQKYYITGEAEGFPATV

[5] = compound 2 mg/rat + 17α-ethinyl, 17β-estradiol 0.06 μg/rat s.c. (antagonist mode)

T1 sequence (Q92731 214-530): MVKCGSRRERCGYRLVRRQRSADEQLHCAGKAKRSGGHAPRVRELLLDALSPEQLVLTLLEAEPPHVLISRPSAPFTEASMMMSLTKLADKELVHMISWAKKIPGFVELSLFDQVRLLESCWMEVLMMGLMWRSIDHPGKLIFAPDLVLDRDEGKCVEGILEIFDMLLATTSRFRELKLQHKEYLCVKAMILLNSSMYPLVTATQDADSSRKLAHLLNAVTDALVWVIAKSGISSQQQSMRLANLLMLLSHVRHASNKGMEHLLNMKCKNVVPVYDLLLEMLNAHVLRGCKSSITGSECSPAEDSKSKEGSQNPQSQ

| SMILES | mean uterine weight ± SEM [2] | mean uterine weight ± SEM [1, 5] | Progesterone receptor mRNA (mean ± stdev) [3] | Temperature change 15 minutes after naloxone injection (mean ± SEM) (morphine-addicted rats; 15 mg/kg) | also measured |
| --- | --- | --- | --- | --- | --- |
| C#C[C@]1(O)CC[C@H]2[C@@H]3CCc4cc(O)ccc4[C@H]3CC[C@@]21C [17α-ethinyl, 17β-estradiol, 17α-ethinyl-17β-estradiol, reference compound] | – | – | – | – | mean uterine weight ± SEM ([1]; reference estrogen alone, 0.06 μg/rat s.c., days 19-21): 104.7 ± 5.4 mg and 85.5 ± 3.1 mg; Temperature change 15 minutes after naloxone injection (mean ± SEM) (morphine-addicted rats; 0.3 mg/kg): 2.12 ± 1.14 |
| Oc1ccc(-c2nc3cc(O)ccc3o2)cc1 [Example 12, 2-(4-HYDROXYPHENYL)-1,3-BENZOXAZOL-5-OL] | 13.7 ± 0.82 mg | 60.2 ± 4.0 mg | 256.2 ± 42.3 arbitrary units | – | – |
| Oc1ccc(-c2nc3cc(O)cc(Br)c3o2)cc1 [Example 20, 7-BROMO-2-(4-HYDROXYPHENYL)-1,3-BENZOXAZOL-5-OL] | – | 95.9 ± 5.5 mg | – | 5.28 ± 0.71 | Number of oocytes (mean ± SEM) [4]: 14.13 ± 0.79 |
| N#Cc1cc(O)cc2nc(-c3ccc(O)cc3)oc12 [Example 41, 5-HYDROXY-2-(4-HYDROXYPHENYL)-1,3-BENZOXAZOL-7-CARBONITRILE] | – | 76.6 ± 3.0 mg | – | 5.25 ± 0.72 | Neurogranin mRNA (mean ± stdev) (Female Mongolian gerbils): 43.0 ± 21.8 arbitrary units |
| C=C(F)c1cc(O)cc2nc(-c3ccc(O)c(F)c3)oc12 [Example 64, 2-(3-FLUORO-4-HYDROXYPHENYL)-7-(1-FLUOROVI NYL)-1,3-BENZOXAZOL-5-OL] | 9.8 ± 0.7 mg | – | 431.3 ± 65.6 arbitrary units | – | IC50 (human ERβ): 3 nM; IC50 (human ERα): 376 nM |
